Experimental data: patent US20020169101A1, “Treatment of sexual dysfunction” (priority 1999, published 2002)

How the values were obtained:
[1] = test system: sexual behaviour of sexually dysfunctional male rats; test: Sexual behaviour of fluoxetine-induced sexually dysfunctional male rats; assay type: in vivo, rat; settings: fluoxetine-pretreated rats, Compound (1) 15 mg/kg or yohimbine 2 mg/kg i.p. 1 h before test
Method: Sprague Dawley male rats (Charles River, UK) were kept, 4 rats per cage, in a reversed lighting regime (12:12 hours, lights off at 5.00 h), with free access to food and water. The rats were pre-selected by being presented with a receptive female at 4 days intervals, i.e. every third day (having 2 clear days between presentations) until completing 6-7 trials of baseline determination. The animals showing consistently vigorous behaviour (ejaculatory latencies <300s) were chosen for further experiments. Animals were treated for 3 consecutive days with either vehicle (water) or fluoxetine (20 mg/kg, i.p., in a 2 ml/kg dosing volume). On the fourth day, the animals treated with water received vehicle (veh+veh) and the animals treated with fluoxetine received one of the three following treatments: Compound (1) (15 mg/kg, dissolved in 50% 2-hydroxypropyl-β-cyclodextrin in saline), vehicle (cyclodextrine), or yohimbine (2 mg/kg dissolved in water). All treatments were administered i.p. in a 1 ml/kg volume, 1 h before tests.
For all the sexual behaviour tests, the males were placed in an observation arena (50-60 cm diameter), starting 5 hours into the dark cycle and observed under red illumination. Three to 4 minutes after placing the male in the arena, a receptive female (ovariectomised, bearing a 7 mm Silastic implant of oestradiol benzoate) was introduced to the arena and the following parameters noted: Mount Latency: time (in seconds) taken between introduction of female and first mount. A maximum time of 15 minutes (900 seconds) was allowed, and the test terminated if no mounts were recorded within that time (FIG. 16), Ejaculation Latency: time (in seconds) taken from first intromission to ejaculation. A maximum time of 30 minutes (1800 seconds) was given, and the test terminated if ejaculation was not achieved in that time (FIG. 17), Percentage of males achieving ejaculation within 30 minutes was calculated (FIG. 18).
A one-way ANOVA followed by Dunnett's t test was used to compare the fluoxetine+vehicle group and other groups for mount and ejaculatory latencies. Percentage of animals ejaculating was analysed using a Chi-square test followed by Fisher's test. (*: P<0.05, **: P<0.01, ***: P<0.001; n=15-19).

[2] = test system: penile intracavernosal pressure; test: Pelvic nerve-stimulated penile intracavernosal pressure in the anaesthetised rabbit model of erection; assay type: in vivo; settings: Compound 3 (10 mg/kg sc) concomitant with a selective PDE5 inhibitor (1 mg/kg iv), vs Compound 3 alone, anaesthetised rabbit (FIG. 26)
Method: Male New Zealand rabbits (˜2.5kg) were pre-medicated with a combination of Medetomidine (Domitor®) 0.5 ml/kg i.m., and Ketamine (Vetalar®)) 0.25 ml/kg i.m. whilst maintaining oxygen intake via a face mask. The rabbits were tracheotomised using a PorteXTM uncuffed endotracheal tube 3 ID., connected to ventilator and maintained at a ventilation rate of 30-40 breaths per minute, with an approximate tidal volume of 18-20 ml, and a maximum airway pressure of 10 cm H2O. Anaesthesia was then switched to Isoflurane and ventilation continued with O2 at 21/min. The right marginal ear vein was cannulated using a 23G or 24G catheter, and Lactated Ringer solution perfused at 0.5 ml/min. The rabbit was maintained at 3% Isoflurane during invasive surgery, dropping to 2% for maintenance anaesthesia. The left jugular vein was exposed, isolated and then cannulated with a PVC catheter (17G) for the infusion of drugs and compounds.
The left groin area of the rabbit was shaved and a vertical incision was made approximately 5 cm in length along the thigh. […] Systolic and diastolic pressures were measured, and the mean arterial pressure calculated using the formula (diastolic x2+systolic)÷3. Heart rate was measured via the pulse oxymeter and Po-ne-mah data acquisition software system (Ponemah Physiology Platform, Gould Instrument Systems Inc). […]

Row | SMILES | Mount Latency ([1]; vs fluoxetine+vehicle (FIG. 16)) | Ejaculation Latency ([1]; vs fluoxetine+vehicle (FIG. 17)) | percentage of animals ejaculating ([1]; vs fluoxetine+vehicle (FIG. 18)) | pelvic nerve-stimulated intracavernosal pressure (ICP) [2] | pelvic nerve-stimulated intracavernosal pressure (ICP) ([2]; listed as compound 3)
1 | COc1ccc(C2(CNC(=O)[C@](C)(Cc3c[nH]c4ccccc34)NC(=O)Nc3ccc([N+](=O)[O-])cc3)CCCCC2)nc1 [Compound (1), (S) 3-(1H-Indol-3-yl)-N-[1-(5-methoxy-pyridin-2-yl)-cyclohexyl-methyl]-2-methyl-2-[3-(4-nitro-phenyl)-ureido]-propionamide] | significantly decreased | significantly decreased | increasing the percentage of animals ejaculating |  | 
2 | C[C@@](Cc1c[nH]c2ccccc12)(NC(=O)Nc1ccc([N+](=O)[O-])cc1)C(=O)NCC1(c2ccc(N)cc2)CCCCC1 [Compound 3, (2S)-N-{[1-(4-aminophenyl)cyclohexyl]methyl}-3-(1H-indol-3-yl)-2-methyl-2-{[(4-nitroanilino)-carbonyl]amino}propanamide] |  |  |  | marked enhancement of the ICP | marked enhancement of intracavernosal pressure
